# Entries after “also recorded” stand apart in the source; their conditions may differ.
# How the values were obtained:
# HT-29 = experiment: Apoptosis/Necrosis by fluorescent microscopy (acridine orange and ethidium bromide); format: cell-based, human
# Description: (§1) Drug stock solutions were made in 100% DMSO then diluted with RPMI media for cell culture testing. All drug solutions were prepared fresh on the day of testing. The cultured cells were obtained at passage #118 and grown in RPMI media supplemented with 5% fetal calf serum, and 2 mM glutamine, 100 U/ml penicillin, 100 U/ml streptomycin, and 0.25 μg/ml amphotericin. The cultures were maintained in a humidified atmosphere of 95% air and 5% CO2 at 37° C. The cultures were passaged at preconfluent densities using a solution of 0.05% trypsin and 0.53 mM EDTA. All experiments involved HT-29 cells between passages 120 and 140, except for the compound of Example 29 which involved SW-480 cell line. Cells were plated at the following densities to obtain cultures used for the experiments: 500 cells/well for 96 well flat-bottom microtiter plates, 1×10^6 cells 2 per 25 cm^2 flask.
# Apoptosis and necrosis were measured using an assay that allowed for the simultaneous measurement of both types of cell death based on morphological characteristics of apoptotic cells (i.e., condensed chromatin) and membrane permeability. Drug preparation and cell culture conditions were the same as for the SRB assay described above. Confluent cultures were established in 25 cm^2 flasks. The cultures were assayed for apoptosis and necrosis by fluorescent microscopy following labeling with acridine orange and ethidium bromide. Floating and attached cells were collected by trypsinization and washed three times in PBS. One ml aliquots of 1×10^6 cells were centrifuged (300 g). The pellet was resuspended in 25 μl media and 1 μl of a dye mixture containing 100 μg/ml acridine orange and 100 μg/ml ethidium bromide prepared in PBS and mixed gently. Ten μl of mixture was placed on a microscope slide and covered with a 22 mm^2 coversilp and examined under 40× dry objectives using epillumination and filter combination.
# An observer blinded to the identity of the treatments scored at least 100 cells per sample. Apoptotic cells were identified by nuclear condensation of chromatin stained by the acridine orange or ethidium bromide, respectively. Necrotic cells were identified by uniform labelling of the cell with ethidium bromide.
# [1] = system: DMBA-Induced Mammary Lesions in Organ Culture; experiment: Mouse mammary gland organ culture, DMBA-induced mammary lesions; format: cell-based, mouse (BALB/c); settings: vs. vehicle (DMSO), read-out: Percent Inhibition
# Description: The compound of Example No. 1 was also tested for its ability to inhibit the incidence of mammary lesions in an organ culture system. This mouse mammary gland organ culture technique has been successfully used by other investigators to study the effects of known cancer-chemopreventative agents such as retinoids and selenium.
# Female BALB/c mice, 28 days old, were treated for nine days with a combination of 1 μg of estradiol and 1 mg of progesterone daily, in order to prime the glands to be responsive to hormones in vitro. The animals were sacrificed and thoracic mammary glands were excised aseptically and incubated for ten days in growth media supplemented with growth-promoting hormones: insulin, prolactin, and hydrocortisone, at 5 μg/ml each and aldosterone at 1 μg/ml. A twenty-four hour treatment of 7,12-dimethylbenz(a)anthracene (DMBA, 2 μg/ml) was carried out between days three and four to induce the formation of mammary lesions. Fully developed glands were deprived of prolactin, hydrocortisone, and aldosterone for 14 days, resulting in the regression of the glands but not the mammary lesions. […]
# The extent of the area occupied by the mammary lesions was quantitated by projecting an image of the gland onto a digitation pad. […] The space covered by each of the unregressed structures was also outlined on the digitization pad and quantitated by the computer.
# SW-480 cell line = experiment: Tumor cell growth inhibition, Sulforhodamine B (SRB) protein binding assay, SW-480; format: cell-based; settings: Homo sapiens, SW480, 144 h, SW-480, six days exposure, read-out: Single Dose Percent Inhibition
# Description: as §1
# Tumor cell growth inhibition was assessed using the Sulforhodamine B (SRB) protein binding assay. In this assay, tumor cells were plated in 96-well plates and treated with drug-containing media for six days (continuous exposure). […] The dye was then solubilized, and the optical density of the resulting solution was determined on a 96-well plate reader. […]
# For each experiment, an IC50 value was determined, if possible, and used for comparative purposes. […]
# prostaglandin synthesis = settings: background; cited from earlier work
# [2] = background; cited from earlier work
# [3] = background; sulfoxide itself; cited from earlier work
# colonic polyps = settings: patients taking the drug; cited from earlier work
# [4] = background; cited from earlier work; remark: listed apart in the source
# precancerous lesions = settings: background; cited from earlier work
structure (smiles),measurement,setting,value
"COc1cc(/C=C2/C(C)=C(CC(=O)O)c3cc(F)ccc32)cc(OC)c1OC [Example 1, (Z)-5-fluoro-2-methyl-1-(3,4,5-trimethoxybenzylidene)-3-indenyl-acetic acid]",% Apoptotic Cells,HT-29; 200 μM,> 90%
same,inhibition at 10 µM,[1]; 10 μM,50%
same,inhibition at 100 µM,[1]; 100 μM,100%
"COc1cc(OC)c(/C=C2/C(C)=C(CC(=O)O)c3cc(F)ccc32)c(OC)c1 [Example 4, (Z)-5-fluoro-2-methyl-1-(2,4,6-trimethoxybenzyildene)-3-indenyl-acetic acid]",% Apoptotic Cells,HT-29; 200 μM,> 90%
"CC1=C(CC(=O)O)c2cc(F)ccc2/C1=C\c1c(Cl)cccc1Cl [Example 6, (Z)-5-fluoro-2-methyl-1-(2,6-dichlorobenzylidene)-3-indenyl-acetic acid]",% Apoptotic Cells,HT-29; 200 μM,60%
same,% Necrotic Cells,HT-29; 200 μM,40%
"COc1ccc(/C=C2/C(C)=C(CC(=O)O)c3cc(F)ccc32)c(OC)c1OC [Example 7, (Z)-5-fluoro-2-methyl-1-(2,3,4-trimethoxybenzylidene)-3-indenyl-acetic acid]",% Apoptotic Cells,HT-29; 200 μM,> 90%
"COc1cc(OC)c(OC)cc1/C=C1/C(C)=C(CC(=O)O)c2cc(F)ccc21 [Example 8, (Z)-5-fluoro-2-methyl-1-(2,4,5-trimethoxybenzylidene)-3-indenyl-acetic acid]",% Apoptotic Cells,HT-29; 200 μM,> 90%
"CC1=C(CC(=O)O)c2cc(F)ccc2/C1=C\c1ccccc1 [Example 10, (Z)-5-fluoro-2-methyl-1-benzylidene-3-indenyl-acetic acid]",% Apoptotic Cells,HT-29; 300 μM,90%
"COc1ccc(/C=C2/C(C)=C(CC(=O)O)c3cc(F)ccc32)cc1 [Example 11, (Z)-5-fluoro-2-methyl-1-(4-methoxybenzylidene)-3-indenyl-acetic acid]",% Apoptotic Cells,HT-29; 200 μM,> 90%
"COc1cc(/C=C2/C(C)=C(CC(=O)O)c3cc(F)ccc32)cc(Br)c1OC [Example 29, (Z)-5-fluoro-2-methyl-1-(3-bromo-4,5-dimethoxybenzylidene)-3-indenyl-acetic acid]",inhibition at 100 µM,SW-480 cell line,80%
CSc1ccc(/C=C2/C(C)=C(CC(=O)O)c3cc(F)ccc32)cc1 [Sulindac Sulfide],prostaglandin synthesis inhibition,prostaglandin synthesis,active moiety as a prostaglandin synthesis inhibitor
same,side effects,[2],associated with the side effects of conventional NSAIDs
CC1=C(CC(=O)O)c2cc(F)ccc2/C1=C\c1ccc([S+](C)[O-])cc1 (stereo not drawn) [Sulindac],anti-arthritic activity,[3],believed to be inactive as an anti-arthritic agent
same,effect on polyps,colonic polyps,Polyps virtually disappear
same,metabolic conversion,[4],converted by liver enzymes to the corresponding sulfide; also recorded: metabolized to sulfone compound
CC1=C(CC(=O)O)c2cc(F)ccc2/C1=C\c1ccc(S(C)(=O)=O)cc1 [sulfone],inhibition of precancerous lesions,precancerous lesions,active as an inhibitor of precancerous lesions
same,prostaglandin synthesis inhibition,prostaglandin synthesis,inactive as an inhibitor of prostaglandin synthesis

# Reference: patent US5998477A, “Substituted methoxy benzylidene indenyl-acetic and propionic acids for treating patients with precancerous lesions” (Cell Pathways Inc., priority 1997, dated 1999)
